Reference: publication PMC6766931, “Design, Synthesis, and Activity Evaluation of Novel N-benzyl Deoxynojirimycin Derivatives for Use as α-Glucosidase Inhibitors” (Molecules, 2019)

Assays:
α-glucosidase [1] = target: T1, α-glucosidase (Saccharomyces cerevisiae, UniProt P53341); assay: In vitro assay of α-glucosidase inhibitory activity (PNPG, 96-well microplates); type: biochemical; conditions: substrate PNPG, pH 6.8, 37 °C, read-out: IC50 (mM) ± SEM
T1 construct: purchased Sigma-Aldrich

[2] = set-up: method as in PMID 1475231; conditions: rats, cited from earlier work
[3] = set-up: method as in earlier work; conditions: quickly metabolized and excreted; cited from earlier work
α-glucosidase [4] = target: T1, α-glucosidase; assay: Enzyme kinetics study (Michaelis-Menten, non-linear regression); type: biochemical; conditions: inhibitor concentration 0.25 mM; for Vmax: substrate PNPG 0.1-5 mM
Experimental: In the enzyme kinetics studies, the enzyme activity was measured at different times using different concentrations of the substrate p-nitrophenyl α-D-glucopyranoside (0.1, 0.2, 0.8, 1.0, 1.2, 1.6, 1.8, 2.0, 2.5, 5 mM). The kinetics of the enzymatic reaction were fit to the Michaelis‒Menten equation. The Michaelis‒Menten equation is as follows:V = Vmax[S]/(Km + [S]).
In this equation, [S] is the concentration of the substrate, Vmax is the maximum reaction velocity of the enzymatic reaction, and Km is the Michaelis constant. […] Non-linear fitting was performed with the help of Origin 8.5, which can calculate the Vmax and Km values. The Ki constant was determined as follows:Ki = [I]/(K’m/Km − 1).
In this formula, [I] is the concentration of inhibitor, K’m is the Michaelis constant of the experimental group, and Km is the Michaelis constant of the blank group.
The same protocol was followed for the experiments reported in Figure 1 except that the inhibitor concentration was 0.25 mM and the substrate concentration was varied as indicated (0.1, 0.2, 0.8, 1.0, 1.2, 1.6, 1.8, 2.0, 2.5, 5 mM). The Km and Vmax values were calculated using […], and then, the Ki value was calculated using the formula that was mentioned in Section 2.3.

[5] = intravenous administration, biphasic reduction in plasma

T1 sequence (P53341 whole entry): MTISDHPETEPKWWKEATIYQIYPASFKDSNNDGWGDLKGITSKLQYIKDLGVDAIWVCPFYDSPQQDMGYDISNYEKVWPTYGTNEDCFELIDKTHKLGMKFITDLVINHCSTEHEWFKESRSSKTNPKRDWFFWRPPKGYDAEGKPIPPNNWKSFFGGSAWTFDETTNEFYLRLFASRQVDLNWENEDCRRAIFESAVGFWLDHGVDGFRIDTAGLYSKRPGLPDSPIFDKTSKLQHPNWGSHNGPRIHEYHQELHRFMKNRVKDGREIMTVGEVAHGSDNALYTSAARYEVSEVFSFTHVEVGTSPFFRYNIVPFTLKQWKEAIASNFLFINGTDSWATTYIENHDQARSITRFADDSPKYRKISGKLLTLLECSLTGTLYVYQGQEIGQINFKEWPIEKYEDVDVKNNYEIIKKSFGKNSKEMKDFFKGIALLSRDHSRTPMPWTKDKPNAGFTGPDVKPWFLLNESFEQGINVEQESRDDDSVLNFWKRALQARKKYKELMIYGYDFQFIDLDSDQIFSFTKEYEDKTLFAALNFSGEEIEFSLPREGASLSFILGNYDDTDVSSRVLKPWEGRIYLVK

Compound | IC50 (α-glucosidase [1]) | also measured
OCC1C(O)C(O)C(O)CN1Cc1ccc(I)cc1 (stereo not shown) [Compound 12d, 2-(hydroxymethyl)-1-(4-iodobenzyl) Piperidine-3,4,5-triol] | 9.88 ± 0.05 mM | 
Cc1cccc(CN2CC(O)C(O)C(O)C2CO)c1 (stereo not shown) [Compound 12k, 2-(hydroxymethyl)-1-(3-methylbenzyl) Piperidine-3,4,5-triol] | 10.3 ± 0.21 mM | 
OCC1C(O)C(O)C(O)CN1Cc1ccc(F)cc1 (stereo not shown) [Compound 12a, 1-(4-fluorobenzyl)-2-(hydroxymethyl) piperidine-3,4,5-triol] | 9.8 ± 0.31 mM | 
COc1c(Br)c(Br)c(CN2C[C@H](O)[C@@H](O)[C@H](O)[C@H]2CO)c(Br)c1OC [Compound 17e, 2-(hydroxymethyl)-1-(2,3,6-tribromo-4,5-dimethoxybenzyl)-2-piperidine-3,4,5-triol] | 9.57 ± 0.08 mM | 
CN1C[C@H](O)[C@@H](O)[C@H](O)[C@H]1CO [N-methyl-DNJ] |  | initial t1/2 in plasma [2, 5]: 4.5 min; terminal t1/2 in plasma [2, 5]: 32 min; dose recovered from the urine unchanged ([2]; intravenous, at 120 min after administration): 80%
OCC1C(O)C(O)C(O)CN1Cc1cccc(F)c1 (stereo not shown) [Compound 12g, 1-(3-fluorobenzyl)-2-(hydroxymethyl) Piperidine-3,4,5-triol] | 10.23 ± 0.02 mM | 
OCC1C(O)C(O)C(O)CN1Cc1cccc(Cl)c1 (stereo not shown) [Compound 12h, 1-(3-chlorobenzyl)-2-(hydroxymethyl) Piperidine-3,4,5-triol] | 15.32 ± 0.04 mM | 
OC[C@H]1NC[C@H](O)[C@@H](O)[C@@H]1O [Compound 1-DNJ, 1-deoxynojirimycin] |  | hypoglycaemic effect in vivo [3]: no significant hypoglycaemic effect
COc1cc(CN2CC(O)C(O)C(O)C2CO)ccc1O (stereo not shown) [Compound 18a, 1-(4-hydroxy-3-methoxybenzyl)-2-(hydroxymethyl) piperidine-3,4,5-triol] | 0.207 ± 0.11 mM | Vmax (α-glucosidase [4]): 3.56 ± 0.28 *10^−6 mmol/min; Ki (α-glucosidase [4]; Ki = [I]/(K'm/Km − 1)): 0.11 ± 0.3 mM
OCC1C(O)C(O)C(O)CN1Cc1cccc(I)c1 (stereo not shown) [Compound 12j, 2-(hydroxymethyl)-1-(3-iodobenzyl) Piperidine-3,4,5-triol] | 10.54 ± 0.04 mM | 
COc1ccc(CN2CC(O)C(O)C(O)C2CO)cc1 (stereo not shown) [Compound 12f, 2-(hydroxymethyl)-1-(4-methoxybenzyl) Piperidine-3,4,5-triol] | 1.02 ± 0.23 mM | 
COc1cc(CN2CC(O)C(O)C(O)C2CO)cc(Br)c1O (stereo not shown) [Compound 18b, 1-(3-bromo-4-hydroxy-5-methoxybenzyl)-2-(hydroxymethyl) piperidine-3,4,5-triol] | 0.276 ± 0.13 mM | 
COc1cc(CN2CC(O)C(O)C(O)C2CO)c(Br)c(Br)c1OC (stereo not shown) [Compound 17d, 1-(2,3-dibromo-4,5-dimethoxybenzyl)-2-(hydroxymethyl) Piperidine-3,4,5-triol] | 1.14 ± 0.09 mM | 
OCC1C(O)C(O)C(O)CN1Cc1cccc(Br)c1 (stereo not shown) [Compound 12i, 1-(3-bromobenzyl)-2-(hydroxymethyl) Piperidine-3,4,5-triol] | 15.66 ± 0.04 mM | 
OCC1C(O)C(O)C(O)CN1Cc1ccc(Br)cc1 (stereo not shown) [Compound 12c, 1-(4-bromobenzyl)-2-(hydroxymethyl) Piperidine-3,4,5-triol] | 12.55 ± 0.03 mM | 
COc1cc(CN2C[C@H](O)[C@@H](O)[C@H](O)[C@H]2CO)cc(Br)c1OCc1ccccc1 [Compound 17b] | 15.68 ± 0.06 mM | 
OCC1C(O)C(O)C(O)CN1Cc1ccc(Cl)cc1 (stereo not shown) [Compound 12b, 1-(4-chlorobenzyl)-2-(hydroxymethyl) piperidine-3,4,5-triol] | 11.22 ± 0.02 mM | 
COc1cc(CN2CC(O)C(O)C(O)C2CO)cc(Br)c1OC (stereo not shown) [Compound 17c, 1-(3-bromo-4,5-dimethoxybenzyl)-2-(hydroxymethyl) Piperidine-3,4,5-triol] | 1.06 ± 0.11 mM | 
C[C@H]1O[C@H](O[C@H]2[C@H](O)[C@@H](O)[C@@H](O[C@H]3[C@H](O)[C@@H](O)C(O)O[C@@H]3CO)O[C@@H]2CO)[C@H](O)[C@@H](O)[C@@H]1N[C@H]1C=C(CO)[C@@H](O)[C@H](O)[C@H]1O (stereo partly shown) [Acarbose, reference compound] |  | Vmax (α-glucosidase [4]): 4.40 ± 0.42 *10^−6 mmol/min
COc1cccc(CN2CC(O)C(O)C(O)C2CO)c1 (stereo not shown) [Compound 12l, 2-(hydroxymethyl)-1-(3-methoxybenzyl) Piperidine-3,4,5-triol] | 1.25 ± 0.34 mM | 
Cc1ccc(CN2CC(O)C(O)C(O)C2CO)cc1 (stereo not shown) [Compound 12e, 2-(hydroxymethyl)-1-(4-methylbenzyl) Piperidine-3,4,5-triol] | 8.65 ± 0.08 mM | 
